Some test systems named below: 786-0 renal; ACHN renal; CAKI-1 renal; CCRF-CEM leukemia; HCT-116 colon; NCI-H522 lung; RPMI-8226 leukemia; RXF 393 renal; SW-620 colon; U251 CNS.
Common to all, as to test: growth of human tumour cells (NCI), 48 h

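Five compound concentrations were applied to cells in 96-well plates for 48 hours; endpoints were derived by simple linear interpolation of the resulting dose-response curve. Abbreviation: GI50, concentration required for 50% inhibition of growth. The concentration for full growth arrest is given as TGI.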

`CCCCCCCCCCCCCCCCCCCCCC(=O)Nc1ccn(C2OC(CO)C(O)C2O)c(=O)n1` (centres undefined): the TGI was over 100 µM in the test with 786-0 renal; over 82.6 µM with ACHN renal; over 100 µM with CAKI-1 renal; over 40.7 µM with CCRF-CEM leukemia; over 100 µM in the test on HCT-116 colon; over 100 µM with NCI-H522 lung. In addition, the TGI in the test with RPMI-8226 leukemia, in the test on RXF 393 renal, in the test on SW-620 colon and with U251 CNS was over 100 µM throughout.
As for `CCCCN(Cc1ccc(F)cc1)c1ccc(CO)c(Cl)c1`, the GI50 in the test on 786-0 renal was 12.2 µM; with ACHN renal, 15.4 µM; in the test with CAKI-1 renal it was 11.7 µM; in the test with CCRF-CEM leukemia, 15.8 µM; in the test on HCT-116 colon, 0.906 µM; with NCI-H522 lung, 15 µM. The GI50 in the test on RPMI-8226 leukemia is 10.1 µM; in the test on RXF 393 renal, 7.16 µM; in the test on SW-620 colon it was 6.11 µM; with U251 CNS it was 4.57 µM. Also, the TGI was found to be 25.6 µM in the test with 786-0 renal; 29.7 µM with ACHN renal; 25.5 µM in the test on CAKI-1 renal; 38.1 µM in the test on CCRF-CEM leukemia; 13.2 µM with HCT-116 colon; 30.1 µM in the test on NCI-H522 lung. Also, the TGI came to 36.3 µM with RPMI-8226 leukemia, 21.1 µM with RXF 393 renal, 20.7 µM in the test on SW-620 colon and 18.9 µM with U251 CNS.
As to `COc1ccc(C(C#N)NNc2nc(C)cc(=O)[nH]2)cc1OC` (centres undefined), the TGI in the test with 786-0 renal, with ACHN renal, with CAKI-1 renal, with CCRF-CEM leukemia, in the test on HCT-116 colon and in the test on NCI-H522 lung was over 100 µM each time. In addition, the TGI in the test on RPMI-8226 leukemia, with RXF 393 renal, in the test with SW-620 colon and in the test with U251 CNS was over 100 µM throughout.
Turning to `CSc1nc2c(nc(N)n2C2OCC(O)C(O)C2O)c(=O)n1C` (centres undefined), the TGI in the test with 786-0 renal, in the test with ACHN renal, with CAKI-1 renal, in the test on CCRF-CEM leukemia, with HCT-116 colon and with NCI-H522 lung was over 100 µM in each case. Further, the TGI in the test with RXF 393 renal, in the test with SW-620 colon and with U251 CNS was over 100 µM throughout.
As to `Cn1nc(-c2ccccc2)c(C(=O)/C=C/c2ccccc2)c(N2CCOCC2)c1=O`, the TGI in the test with 786-0 renal is 32.4 µM; in the test with ACHN renal, 39.9 µM; with CCRF-CEM leukemia, 57.2 µM; in the test on HCT-116 colon it was 32.8 µM; in the test on NCI-H522 lung, 29.9 µM; with RPMI-8226 leukemia it was 59.1 µM. The TGI in the test on RXF 393 renal is 25.9 µM; with SW-620 colon, over 100 µM; in the test with U251 CNS it was 29.4 µM.
In the case of `Clc1nc(Cl)c2ncn(Cc3ccc(COc4cccc(OCc5ccc(Cn6cnc7c(Cl)nc(Cl)nc76)cc5)c4)cc3)c2n1`, the GI50 was 36.2 µM with 786-0 renal; 45.4 µM in the test on ACHN renal; over 100 µM with CAKI-1 renal; 17.2 µM in the test on CCRF-CEM leukemia; 61.9 µM in the test with NCI-H522 lung; 9.5 µM in the test with RPMI-8226 leukemia. The GI50 is over 100 µM in the test on RXF 393 renal, over 100 µM in the test on SW-620 colon and 19.8 µM in the test on U251 CNS. Besides, the TGI in the test with 786-0 renal, in the test with ACHN renal, in the test on CAKI-1 renal, in the test with CCRF-CEM leukemia, in the test with NCI-H522 lung and in the test on RPMI-8226 leukemia was over 100 µM throughout. Moreover, the TGI in the test on RXF 393 renal, in the test with SW-620 colon and in the test with U251 CNS was over 100 µM in each case.
As to `NC(=O)N1N=C2c3ccccc3SC[C@H]2[C@@H]1c1ccccc1`, the TGI with 786-0 renal is over 100 µM; with ACHN renal it was over 100 µM; in the test with CCRF-CEM leukemia it was 70.7 µM; with HCT-116 colon, 28.2 µM; in the test on RPMI-8226 leukemia, 87.5 µM; with RXF 393 renal, 26 µM. The TGI in the test on SW-620 colon is over 100 µM; with U251 CNS, 50.4 µM.
`COc1cc(/C=C/C(=O)c2sc(Nc3ccccc3)nc2C)ccc1O`: the TGI in the test on 786-0 renal, with ACHN renal, in the test with CAKI-1 renal, in the test on CCRF-CEM leukemia, in the test with NCI-H522 lung and in the test on RPMI-8226 leukemia was over 100 µM each time. Further, the TGI with RXF 393 renal, in the test on SW-620 colon and in the test on U251 CNS was over 100 µM each time.
Consider `CC(C)C1CC(O)O[C@@H]([C@@H](C)[C@H]2CC(=O)[C@@H]3[C@@H]4[C@@H](O)[C@H](O)[C@H]5[C@@H](O)[C@H](O)CC[C@]5(C)[C@H]4CC[C@]23C)C1` (some centres undefined), for which the TGI is over 100 µM in the test with 786-0 renal; 62.1 µM in the test on ACHN renal; over 100 µM in the test with CCRF-CEM leukemia; over 100 µM with HCT-116 colon; over 100 µM in the test on NCI-H522 lung; 28.9 µM with RXF 393 renal. Also, the TGI with SW-620 colon and in the test with U251 CNS was over 100 µM in each case.
As for `c1cnc2[nH]cc(-c3csc(-c4cn(CCCCN5CCOCC5)c5ccccc45)n3)c2c1`, the GI50 with 786-0 renal was 1.85 µM; with CAKI-1 renal, 1.74 µM; in the test with CCRF-CEM leukemia it was 1.98 µM; in the test on HCT-116 colon, 1.65 µM; in the test on NCI-H522 lung, 1.95 µM; in the test with RPMI-8226 leukemia, 1.83 µM. The figures for the GI50 in the test on RXF 393 renal and with SW-620 colon were 1.67 µM and 1.77 µM, respectively. In addition, the TGI was found to be 3.33 µM in the test on 786-0 renal; 3.52 µM in the test with CAKI-1 renal; 4.03 µM with CCRF-CEM leukemia; 3.05 µM in the test with HCT-116 colon; 3.77 µM in the test on NCI-H522 lung; 4.29 µM in the test on RPMI-8226 leukemia. The TGI was 3.31 µM with RXF 393 renal and 3.54 µM in the test on SW-620 colon.
Regarding `COC(=O)c1csc(-c2nc(CCNC(=O)OC(C)(C)C)sc2Br)n1`, the TGI in the test on 786-0 renal, in the test with ACHN renal, in the test with CCRF-CEM leukemia, in the test on HCT-116 colon, in the test on RPMI-8226 leukemia and in the test on RXF 393 renal was over 100 µM each time. Further, the TGI in the test with SW-620 colon and in the test with U251 CNS was over 100 µM throughout.
On to `CC1=C(O)C(=O)C2C(=O)C1C(C)C2c1ccc(Cl)cc1` (centres undefined), for which the TGI with 786-0 renal, in the test with ACHN renal, in the test on CAKI-1 renal, in the test on CCRF-CEM leukemia, in the test with NCI-H522 lung and in the test with RPMI-8226 leukemia was over 100 µM throughout. For the same molecule, the TGI in the test with RXF 393 renal, in the test with SW-620 colon and with U251 CNS was over 100 µM each time.

These data come from PubChem BioAssay (NCI).
